Numbered stars: 1 amine (or outer) side, 2 acyl side, 3 side chain; on linkers, the order of the positions; unused ones are H or OH. Square brackets hold non-standard residues; d marks the D form. Side chains are listed from the residue outwards. Peptide text beside a SMILES is read from it. * marks the point of attachment. C18 diacid = O=C(O)CCCCCCCCCCCCCCCCC(=O)*; γGlu = O=C(O)[C@H](CCC(=O)[*:2])N[*:1]; Desaminohistidyl = O=C(CCc1c[nH]cn1)*; Ac4c = NC1(C(=O)O)CCC1; AEEA = NCCOCCOCC(=O)O; Aib = CC(C)(N)C(=O)O
Columns and labels:
Mouse GLP-1R = target: T1, Mouse GLP-1R (Mus musculus, UniProt O35659); assay: Receptor binding, SPA competitive binding assay; settings: SPA competitive binding on BHK cell membranes, [125I]-GLP-1(7–36)-NH2 tracer, 1% species specific plasma, 2 h 30°C; value (95% CI)
T1 construct: a plasmid encoding either the glucagon receptor or the GLP-1 receptor from the relevant species; expressed in transfected cells
T1 sequence (O35659 22-463): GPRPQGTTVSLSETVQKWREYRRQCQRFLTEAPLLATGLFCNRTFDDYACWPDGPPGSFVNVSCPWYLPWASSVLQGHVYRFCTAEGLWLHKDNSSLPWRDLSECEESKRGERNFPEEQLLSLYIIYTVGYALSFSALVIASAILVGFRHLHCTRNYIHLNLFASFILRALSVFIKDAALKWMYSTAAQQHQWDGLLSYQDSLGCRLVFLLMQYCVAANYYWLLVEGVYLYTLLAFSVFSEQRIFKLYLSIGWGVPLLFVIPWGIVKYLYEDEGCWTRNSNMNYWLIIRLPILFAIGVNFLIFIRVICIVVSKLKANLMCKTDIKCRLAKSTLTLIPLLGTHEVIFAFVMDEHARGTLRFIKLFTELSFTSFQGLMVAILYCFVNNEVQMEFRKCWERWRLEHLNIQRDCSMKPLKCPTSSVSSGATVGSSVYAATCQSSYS
Method: (§1) The binding assay was performed on cell membranes in the presence of 1% (v/v) species-specific heparin-treated pooled plasma (Bioreclamation IVT, Westbury, NY) diluted in assay buffer (50 mM HEPES supplemented with 5 mM EGTA, 5 mM MgCl2, and 0.005% (v/v) Tween 20, pH7.4). […] Cells stably expressing an individual receptor of interest were grown at 5% CO2, 37°C in DMEM (supplemented with 10% FCS, 0.5 mg/ml G418 and 0.3 mg/ml hygromycin). Membrane preparations were made from cells harvested at approximately 80% confluence, washed and homogenized in 20 mM HEPES with 0.1 mM EDTA, pH 7.4. Protein concentration was determined, and the membranes were stored at -80°C until use. The membrane binding assay was performed in a 96-well OptiPlate (PerkinElmer) in a total volume of 200 μl. Test compounds were dissolved in 80% DMSO and further diluted in assay buffer. 50 μl of diluted plasma was added to the assay plate wells followed by addition of test compounds (25 μl), cell membranes (50 μl, 0.06 mg/ml), SPA beads (20 mg/ml in assay buffer) and radioligand (60,000 cpm/well, corresponding to 0.06 nM; 2200 Ci/mmol. Each assay plate was incubated for 2 h at 30°C, centrifuged at 1500 rpm for 10 minutes and counted in a TopCount NXT instrument (PerkinElmer).
(§2) For the receptor binding assays, logIC50 values were calculated using non-linear regression analysis. The error estimation was reported as the 95% confidence interval. […] The calculations were performed in GraphPad Prism 6.4 (GraphPad, San Diego, CA) and error estimation was expressed as the 95% confidence interval. […] Averages, error estimation, ratios and plasma shifts were all calculated on logIC50 or logEC50 values and transformed to the anti-log values for reporting purposes.

Rat GLP-1R = target: T2, Rat GLP-1R (Rattus norvegicus, UniProt P32301); assay: Receptor binding, SPA competitive binding assay; settings: SPA competitive binding on BHK cell membranes, [125I]-GLP-1(7–36)-NH2 tracer, 1% species specific plasma, 2 h 30°C; value (95% CI)
T2 construct: a plasmid encoding either the glucagon receptor or the GLP-1 receptor from the relevant species; expressed in transfected cells
T2 sequence (P32301 22-463): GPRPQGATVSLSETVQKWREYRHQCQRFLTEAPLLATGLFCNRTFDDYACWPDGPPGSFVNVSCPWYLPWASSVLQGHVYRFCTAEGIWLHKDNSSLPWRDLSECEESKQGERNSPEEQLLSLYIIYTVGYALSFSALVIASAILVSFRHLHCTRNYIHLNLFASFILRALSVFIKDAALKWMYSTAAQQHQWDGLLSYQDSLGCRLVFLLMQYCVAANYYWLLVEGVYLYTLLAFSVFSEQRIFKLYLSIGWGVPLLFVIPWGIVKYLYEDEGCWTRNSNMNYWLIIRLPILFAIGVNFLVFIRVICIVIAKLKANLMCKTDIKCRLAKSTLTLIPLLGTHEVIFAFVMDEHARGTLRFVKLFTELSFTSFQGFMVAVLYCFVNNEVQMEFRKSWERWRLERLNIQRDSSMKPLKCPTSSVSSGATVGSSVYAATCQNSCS
Method: as §1, §2

Human GCGR = target: T3, Human GCGR (Homo sapiens, UniProt P47871); assay: Receptor binding, SPA competitive binding assay; settings: SPA competitive binding on BHK cell membranes, [125I]-glucagon tracer, 1% species specific plasma, 2 h 30°C; value (95% CI)
T3 construct: a plasmid encoding either the glucagon receptor or the GLP-1 receptor from the relevant species; expressed in transfected cells
Method: as §1, §2

Human GLP-1R = Human GLP-1R (Homo sapiens, UniProt P43220); assay: Receptor binding, SPA competitive binding assay; settings: for IC50: SPA competitive binding on BHK cell membranes, [125I]-GLP-1(7–36)-NH2 tracer, 1% species specific plasma, 2 h 30°C, value (95% CI)
Method: as §1, §2

Rat GCGR = target: T4, Rat GCGR (Rattus norvegicus, UniProt P30082); assay: Receptor binding, SPA competitive binding assay; settings: SPA competitive binding on BHK cell membranes, [125I]-glucagon tracer, 1% species specific plasma, 2 h 30°C; value (95% CI)
T4 construct: a plasmid encoding either the glucagon receptor or the GLP-1 receptor from the relevant species; expressed in transfected cells
Method: as §1, §2

DIO mice = assay: Subchronic effect on glucose tolerance in DIO mice (IPGTT at steady state); format: in vivo, mouse
Method: Compound exposure was measured by Luminescence Oxygen Channeling Immunoassay (LOCI). […] The three reactants were combined with the analyte and formed a two-sited immuno-complex. Illumination of the complex released singlet oxygen […] from the donor beads. They were channeled into the acceptor beads and triggered a chemiluminescence response which was measured in an EnVision plate reader (PerkinElmer). The amount of light was proportional to the concentration of the analyte. As calibrators, a dilution line of the relevant analyte in rat/mouse plasma was included.
Animals were fasted for 5–6 h prior to intraperitoneal (i.p.) injection of 2 g/kg glucose. Blood glucose was analysed on whole blood from the tail vein of conscious animals using a Biosen S-line glucose analyzer (EKF-diagonistic Gmbh, Barleben, Germany) by the glucose oxidase method, at basal and at t = 15, 30, 60, 90, 180 min post glucose administration.
DIO mice received s.c. injections once daily for 4–5 weeks. Animals were dosed at different times of day to allow for assessment of glucose tolerance and other metabolic parameters at same time of day but at different time points in relation to dosing. […] Body composition was assessed in conscious animals by Magnetic Resonance (MR) scanning prior to initiation of treatment and at the end of the treatment period. Steady-state plasma parameters were assessed in non-fasted animals. Additional DIO mice (n = 4) were included for verification of 24-h peptide exposure in steady state. The mice received s.c. doses daily for 2 weeks (13 days) with 3 nmol/kg NN1177; 5 nmol/kg NN1151 or 5 nmol/kg NN1359, where after plasma sampled after t = 5 h (NN1177) or 6 h (NN1151, NN1359), 10 h (all co-agonists) and 24 h (all co-agonists) post-dosing was analysed for exposure.
Analogues were tested for subchronic effect in two different set-ups. […] The Cmax and Cmin animals were included in separate treatment groups and evaluated head-to-head for glucose tolerance and additional metabolic parameters at the end of the treatment period. […] IPGTT was performed as described above, but additionally blood was sampled from vena facialis of conscious animals at t = 210 min relative to the administration of glucose for exposure analysis.
IPGTT was performed as described above.

[1] = steady state, after 3 weeks daily s.c. dosing, Cmax (5 h post dosing), p<0.001
[2] = steady state, after 4 weeks daily s.c. dosing, Cmin (24 h post dosing)
[3] = steady state, after 4 weeks daily s.c. dosing, Cmin (24 h post dosing), p<0.001
[4] = steady state 5 weeks, 3 and 5 nmol/kg, Cmax (5 h post dosing), p<0.001

Human GLP-1R, sequence (P43220 24-463): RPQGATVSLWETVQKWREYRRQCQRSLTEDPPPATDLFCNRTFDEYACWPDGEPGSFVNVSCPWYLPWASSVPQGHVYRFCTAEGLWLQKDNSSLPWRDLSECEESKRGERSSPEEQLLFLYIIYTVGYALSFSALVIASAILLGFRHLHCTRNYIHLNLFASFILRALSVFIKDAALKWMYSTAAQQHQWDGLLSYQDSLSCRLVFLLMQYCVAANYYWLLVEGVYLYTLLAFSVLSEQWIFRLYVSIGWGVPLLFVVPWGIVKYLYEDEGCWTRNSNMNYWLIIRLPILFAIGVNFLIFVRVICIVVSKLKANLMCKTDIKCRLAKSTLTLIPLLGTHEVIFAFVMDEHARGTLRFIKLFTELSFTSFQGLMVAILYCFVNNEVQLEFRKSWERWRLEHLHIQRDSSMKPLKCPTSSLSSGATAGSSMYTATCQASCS
T4 sequence (P30082 27-485): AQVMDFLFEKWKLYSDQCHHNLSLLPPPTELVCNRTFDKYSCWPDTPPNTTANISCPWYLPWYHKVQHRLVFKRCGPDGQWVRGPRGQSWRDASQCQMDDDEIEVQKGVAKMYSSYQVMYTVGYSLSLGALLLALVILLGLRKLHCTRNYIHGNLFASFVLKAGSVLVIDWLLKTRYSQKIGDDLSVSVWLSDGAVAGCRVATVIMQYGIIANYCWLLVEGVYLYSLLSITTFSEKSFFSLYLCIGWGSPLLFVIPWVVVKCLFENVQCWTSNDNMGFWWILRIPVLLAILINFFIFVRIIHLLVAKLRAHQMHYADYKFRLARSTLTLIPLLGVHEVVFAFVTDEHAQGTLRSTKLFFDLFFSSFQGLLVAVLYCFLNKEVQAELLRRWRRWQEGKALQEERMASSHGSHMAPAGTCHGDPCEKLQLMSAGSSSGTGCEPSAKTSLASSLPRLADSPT
T3 sequence (P47871 26-477): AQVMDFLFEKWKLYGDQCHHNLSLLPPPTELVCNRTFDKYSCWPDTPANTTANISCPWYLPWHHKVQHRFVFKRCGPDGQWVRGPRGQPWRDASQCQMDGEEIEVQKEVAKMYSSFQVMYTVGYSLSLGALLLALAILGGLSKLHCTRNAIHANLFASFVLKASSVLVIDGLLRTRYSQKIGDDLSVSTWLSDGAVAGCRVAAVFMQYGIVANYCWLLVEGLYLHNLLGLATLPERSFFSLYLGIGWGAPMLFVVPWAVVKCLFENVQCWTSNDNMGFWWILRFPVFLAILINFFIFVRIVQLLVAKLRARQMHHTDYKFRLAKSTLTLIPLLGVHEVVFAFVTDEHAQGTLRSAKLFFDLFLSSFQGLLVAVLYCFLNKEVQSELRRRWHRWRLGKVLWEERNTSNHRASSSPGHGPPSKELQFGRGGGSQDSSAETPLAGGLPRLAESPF

SMILES	IC50 (Mouse GLP-1R) [nM]	IC50 (Rat GLP-1R) [nM]	IC50 (Human GCGR) [nM]	IC50 (Human GLP-1R) [nM]	IC50 (Rat GCGR) [nM]	Glucose tolerance (IPGTT) vs vehicle (DIO mice; [1])	Basal blood glucose vs vehicle (DIO mice; [2])	Glucose tolerance (IPGTT) vs vehicle (DIO mice; [3])	Binding affinity to GLP-1 receptors relative to glucagon receptors (Human GLP-1R; across human, mouse and rat receptor binding assays, 1% plasma)	Glucose tolerance (IPGTT) vs vehicle (DIO mice; steady state 5 weeks, 3 nmol/kg, Cmin (24 h post dosing), p<0.001)	Glucose tolerance (IPGTT) vs vehicle (DIO mice; steady state 5 weeks, 5 nmol/kg, Cmin (24 h post dosing))	Basal blood glucose vs vehicle (DIO mice; [4])	Glucose tolerance (IPGTT) vs vehicle (DIO mice; [4])	Basal blood glucose vs vehicle (DIO mice; steady state 5 weeks, Cmin (24 h post dosing), p<0.001)
CC(C)C[C@H](NC(=O)[C@H](CC(=O)O)NC(=O)[C@H](CC(C)C)NC(=O)[C@H](Cc1ccc(O)cc1)NC(=O)[C@H](CCCCN)NC(=O)[C@H](CO)NC(=O)[C@H](CC(C)C)NC(=O)[C@H](CC(=O)O)NC(=O)[C@H](CO)NC(=O)[C@@H](NC(=O)[C@H](Cc1ccccc1)NC(=O)[C@@H](NC(=O)CNC(=O)[C@H](CCC(N)=O)NC(=O)C1(NC(=O)[C@@H](N)Cc2c[nH]cn2)CCC1)[C@@H](C)O)[C@@H](C)O)C(=O)N[C@@H](CCCNC(=N)N)C(=O)N[C@@H](CCCNC(=N)N)C(=O)N[C@@H](C)C(=O)N[C@@H](CCCNC(=N)N)C(=O)N[C@@H](CC(=O)O)C(=O)N[C@@H](Cc1ccccc1)C(=O)N[C@H](C(=O)N[C@@H](CCC(N)=O)C(=O)N[C@@H](Cc1c[nH]c2ccccc12)C(=O)N[C@@H](CC(C)C)C(=O)N[C@@H](CC(C)C)C(=O)N[C@@H](CCCCNC(=O)CC[C@H](NC(=O)CC[C@H](NC(=O)COCCOCCNC(=O)COCCOCCNC(=O)CC[C@H](NC(=O)CC[C@H](NC(=O)CCCCCCCCCCCCCCCCC(=O)O)C(=O)O)C(=O)O)C(=O)O)C(=O)O)C(=O)N[C@H](C(N)=O)[C@@H](C)O)C(C)C [NN1151] (H-H[Ac4c]QGTFTSDLSKYLDLRRARDFVQWLLK([γGlu-γGlu-AEEA-AEEA-γGlu-γGlu-C18 diacid])T-NH2)	1.87	1.72	0.81	1.52	0.27	improved	at the level of vehicle treated animals	significantly impaired						
CC(C)C[C@H](NC(=O)[C@H](Cc1ccc(O)cc1)NC(=O)[C@H](CCCCN)NC(=O)[C@H](CO)NC(=O)[C@H](CC(C)C)NC(=O)[C@H](CC(=O)O)NC(=O)[C@H](CO)NC(=O)[C@@H](NC(=O)[C@H](Cc1ccccc1)NC(=O)[C@@H](NC(=O)CNC(=O)[C@H](CCC(N)=O)NC(=O)C(C)(C)NC(=O)[C@@H](N)Cc1c[nH]cn1)[C@@H](C)O)[C@@H](C)O)C(=O)N[C@@H](CCC(=O)O)C(=O)N[C@@H](CO)C(=O)N[C@@H](CCCCN)C(=O)N[C@@H](CCCNC(=N)N)C(=O)N[C@@H](C)C(=O)N[C@@H](CCCNC(=N)N)C(=O)N[C@@H](CCC(=O)O)C(=O)N[C@@H](Cc1ccccc1)C(=O)N[C@H](C(=O)N[C@@H](CCC(N)=O)C(=O)N[C@@H](Cc1c[nH]c2ccccc12)C(=O)N[C@@H](CC(C)C)C(=O)N[C@@H](CC(C)C)C(=O)N[C@@H](CCCCNC(=O)CC[C@H](NC(=O)CC[C@H](NC(=O)[C@H](CO)NC(=O)[C@H](CCC(=O)O)NC(=O)[C@H](CO)NC(=O)CC[C@H](NC(=O)CC[C@H](NC(=O)CCCCCCCCCCCCCCCCC(=O)O)C(=O)O)C(=O)O)C(=O)O)C(=O)O)C(=O)N[C@H](C(N)=O)[C@@H](C)O)C(C)C [NN1177] (H-H[Aib]QGTFTSDLSKYLESKRAREFVQWLLK([γGlu-γGlu-Ser-Glu-Ser-γGlu-γGlu-C18 diacid])T-NH2)	0.11	0.17	2.54	0.64	0.3				two-to four-fold	impaired	at the level of vehicle	improved	improved	improved
CC[C@H](C)[C@H](NC(=O)[C@H](Cc1ccccc1)NC(=O)[C@H](CCC(=O)O)NC(=O)[C@H](CCCNC(=N)N)NC(=O)[C@H](C)NC(=O)[C@H](C)NC(=O)[C@H](CCC(N)=O)NC(=O)[C@H](CCC(=O)O)NC(=O)[C@H](CCC(=O)O)NC(=O)[C@H](CC(C)C)NC(=O)[C@H](Cc1ccc(O)cc1)NC(=O)[C@H](CCCCN)NC(=O)[C@H](CO)NC(=O)[C@@H](NC(=O)[C@H](CC(=O)O)NC(=O)[C@H](CO)NC(=O)[C@@H](NC(=O)[C@H](Cc1ccccc1)NC(=O)[C@@H](NC(=O)CNC(=O)[C@H](Cc1c[nH]cn1)NC(=O)C(C)(C)NC(=O)CCc1c[nH]cn1)[C@@H](C)O)[C@@H](C)O)C(C)C)C(=O)N[C@@H](C)C(=O)N[C@@H](Cc1c[nH]c2ccccc12)C(=O)N[C@@H](CC(C)C)C(=O)N[C@@H](CC(C)C)C(=O)N[C@@H](CCCCNC(=O)COCCOCCNC(=O)COCCOCCNC(=O)CC[C@H](NC(=O)CC[C@H](NC(=O)CCCCCCCCCCCCCCCCC(=O)O)C(=O)O)C(=O)O)C(=O)N[C@H](C(N)=O)[C@@H](C)O [NN1359] (Desaminohistidyl-[Aib]HGTFTSDVSKYLEEQAAREFIAWLLK([AEEA-AEEA-γGlu-γGlu-C18 diacid])T-NH2)	0.37	2.06	7.54	0.84	6.29	significantly improved	significantly improved	significantly improved						

From publication PMC8896685 (PLoS ONE, 2022)
